# Data taken from publication PMC12469161, “Anti-cancer compound screening identifies Aurora Kinase A inhibition as a means to favor CRISPR/Cas9 gene correction over knock-out” (PLOS One, 2025).
# Like-named read-outs stand apart in the source and are kept apart here.
# Tests used:
# [1] = system: HEK293T-eGFP cells; test: MTT cytotoxicity assay, 72 hours; assay type: cell-based
# Experimental: Cells were cultured for 16–24 hours under standard culturing conditions (5% CO2, 37 °C). […] All dose ranges were added in duplicate, followed by 72 hours of incubation. Cell viability was determined using a tetrazolium based metabolic activity assay. Briefly, 5 µL of 3-(4.5-dimethylthiazol-2-yl)-2,5-diphenyltetrazolium bromide (MTT) solution (5 mg/mL MTT in sterile PBS) was added per well, and the microplates were incubated for 4 hours at 37°C and 5% CO2 in a cell culture incubator. Next, 40 µL of 10% SDS/0.01 M HCl was added per well, and the microplates were incubated for 24–72 hours at 37°C and 5% CO2 in a cell culture incubator. Subsequently the absorbance at 570 nm and background absorbance at 720 nm were measured using the Spectramax i3x (Molecular Devices, San Jose, USA). Subsequently, the absorbance values at 720 nm were subtracted from the absorbance values at 570 nm, and the corresponding values were used to plot dose-response curves.
# The data was normalized to the DMSO-treated cells (defined as 100% viability) and the empty controls (defined as 0% viability).
# [2] = system: eGFP locus in HEK293T-eGFP cells (HDR vs NHEJ); test: CRISPR gene-editing outcome (eGFP to BFP conversion, flow cytometry) with CRISPR-Cas9 LNP; assay type: cell-based; conditions: for preferential activation of HDR over NHEJ in hit validation: narrowed dose range, triplicate, vs LNP only; for effect on the NHEJ and HDR outcomes: validated hits, Fig 2B; for effect on relative HDR in the compound screen: up to three dosages based on IC50, single measurements
# Experimental: (§1) Compounds were assessed in three dosages to assess the effects on gene-editing efficacy. […] Cells were incubated with these compounds for 24 hours prior to LNP addition. LNP were added to all wells at a final concentration of 20 nM SpCas9 to achieve robust genome editing. After 24 hours of co-incubation, medium was refreshed and cells were transferred to a 48 well plate for further culturing. Six days after adding compounds, cells were processed for flow cytometric analysis of the gene knock-out and gene-correction efficiencies. Briefly, a ssDNA template was used carrying two nucleotide mutations to convert the eGFP sequence to that of a blue fluorescent protein (BFP), as well as mutating the PAM sequence to ensure robust HDR. The sgRNA spacer sequence was 5’-[…]-3’, and the HDR template sequence was 5’-[…]-3’.
# Flow cytometry using the BD FACS Canto II (Becton Dickinson) was used to determine cells undergoing NHEJ (eGFP and BFP negative population) and HDR (eGFP negative, BFP positive). Data analysis was performed using Flowlogic (version 8.7). Graphpad PRISM (version 9.3.1) was used for statistical analysis and preparing graphs.
# (§2) The percentage of HDR relative to total gene editing in a given cell population (hereafter named Relative HDR (% of edited cells) was calculated by dividing the absolute HDR population by the sum of gene-edited cells found in the BFP+ and eGFP- gates. Absolute HDR (% of all cells) and Absolute NHEJ (% of all cells) were analyzed where appropriate. The gating strategy is given in S1 Fig in S1 File.
# [3] = system: eGFP locus in Hepa 1–6-eGFP cells (HDR vs NHEJ); test: CRISPR gene-editing outcome (eGFP to BFP, flow cytometry) with ProDeliverIN CRISPR; assay type: cell-based, murine; conditions: Hepa 1–6-eGFP
# Description: Lipid nanoparticles (LNP) carrying SpCas9, sgRNA and HDR template DNA were formulated using the components and molecular ratios described previously. 1,1′-((2-(4-(2-((2-(bis(2-hydroxydodecyl)amino)ethyl)(2-hydroxydodecyl)amino)ethyl)piperazin-1-yl)ethyl)azanediyl)bis(dodecan-2-ol) (C12-200) was acquired from CordonPharma (Plankstadt, Germany) and used as the ionizable lipid in the formulation. 1,2-dioleoyl-sn-glycero-3-phosphoethanolamine (DOPE) was acquired from Lipoid GmbH (Steinhausen, Switzerland), Cholesterol and 1,2-dimyristoyl-rac-glycero-3-methoxypolyethylene glycol-2000 (PEG-DMG) were acquired from Sigma-Aldrich, and 1,2-dioleoyl-3-trimethylammonium-propane (DOTAP) was acquired from Merck (Darmstadt, Germany). LNP were produced using microfluidic mixing with the Dolomite Microfluidics system (Dolomite Microfluidics, Royston, United Kingdom) and herring-bone micromixer chip with hydrophilic coating (Dolomite Microfluidics, catalogue number 3200401). A total flow rate of 1.5 mL/min and flow rate ratio of 2:1 were used between an aqueous outer phase containing SpCas9, sgRNA and HDR template in nuclease free water, and the lipids in 100% ethanol in the inner phase, respectively. The resulting LNP were diluted 4 times in Dulbecco’s PBS (Sigma-Aldrich). In the experiments using the Hepa 1–6 eGFP cells, ProDeliverIN CRISPR (OZ Biosciences, San Diego, USA) was used as reported previously.
# as §1
# Flow cytometry using the BD FACS Canto II (Becton Dickinson) was used to determine cells undergoing NHEJ (eGFP and BFP negative population) and HDR (eGFP negative, BFP positive). […]
# as §2
# [4] = system: Hepa 1–6-eGFP cells; test: MTS cell viability and morphology, 5 days; assay type: cell-based, murine; conditions: 0.3 µM, after 5 days, vs untreated control
# Experimental: A narrower cytotoxicity range was determined by exposing cells to 0.1–1 µM of the tested compounds. 48 hours after treatment started, cells were washed and harvested using medium and one third of the volume was transferred to a fresh 96 well plate, analogous to how cells are treated during gene editing experiments. Subsequently, cells were cultured for another 3–5 days. In the case of 5 days, one third of the cells was again transferred into a fresh 96-well plate on day 3 to allow enough space for logarithmic cell growth during the additional incubation time. Cell viability was determined by the Promega One Step MTS assay (Promega, Madison, USA) using the manufacturer’s specifications. Relative cell viability for the Hepa 1–6-eGFP cells was calculated by normalizing the compound conditions to controls treated with DMSO only or DMSO plus gene editing formulations. For the HEK293T cells, the absolute absorbance at […] was used as it was more representative of the relative cell viability between samples.
# Cell morphology was assessed using the Nikon Eclipse Ti2 microscope (Nikon Europe, Amstelveen, The Netherlands). Pictures were acquired at 10x magnification with a Nikon DSLR 10 camera using the same imaging settings within each experiment set (Nikon Europe, Amstelveen, The Netherlands).
# [5] = 72 h, HEK293T-eGFP cells, 3 days of incubation, MTT, read-out: IC50
# [6] = HEK293T-eGFP cells, 3 days of incubation, MTT, read-out: IC50
Molecule,"IC50 [1, 5]",other results
O=C(NC1CCNCC1)c1[nH]ncc1NC(=O)c1c(Cl)cccc1Cl [AT7519],438 nM,–
CCN1CCN(Cc2ccc(Nc3ncc(F)c(-c4cc(F)c5nc(C)n(C(C)C)c5c4)n3)nc2)CC1 [Abemaciclib],1070 nM,–
C=CCn1c(=O)c2cnc(Nc3ccc(N4CCN(C)CC4)cc3)nc2n1-c1cccc(C(C)(C)O)n1 [Adavosertib],227 nM,–
CNc1nc(-c2nc3ccc(N4CCN(C)CC4)cc3n2Cc2ccccc2)cn2c(C)nnc12 [BI 894999],582 nM,–
O=C(/C=C/c1cccc(S(=O)(=O)Nc2ccccc2)c1)NO [Belinostat],1100 nM,preferential activation of HDR over NHEJ in hit validation [2]: strong dose-dependent preferential activation of HDR over NHEJ; effect on the NHEJ and HDR outcomes [2]: increased both NHEJ and HDR
CNCc1ccc(-c2cc(-c3nc(-c4ccc(S(=O)(=O)C(C)C)cc4)cnc3N)on2)cc1 [Berzosertib],335 nM,–
Cc1sc2c(c1C)C(c1ccc(Cl)cc1)=N[C@@H](CC(=O)Nc1ccc(O)cc1)c1nnc(C)n1-2 [Birabresib],540 nM,–
Cc1sc2c(c1C)C(c1ccc(Cl)cc1)=N[C@@H](CC(N)=O)c1nnc(C)n1-2 [CPI-203],–,"IC50 [1, 6]: 651 nM"
CC(C)c1c(-c2ccccc2)[nH]c2c(C#N)cnn2c1=O [CPI-455],–,"IC50 [1, 6]: > 10000 nM"
CC[C@H](Nc1nc(NCc2cnc(C)cc2C)c2ncn(C(C)C)c2n1)[C@@H](C)O [CYC065],255 nM,–
C[C@@H]1COCCN1c1cc(C2([S@](C)(=N)=O)CC2)nc(-c2cc[nH]c3nccc2-3)n1 [Ceralasertib],1840 nM,–
"CO[C@@H](C(=O)N1Cc2n[nH]c(NC(=O)c3ccc(N4CCN(C)CC4)cc3)c2C1)c1ccccc1 [Danusertib, danusertib]",–,dosage with overall high efficacy and manageable toxicity [3]: 0.3 µM; cell morphology by microscopy [4]: not disrupted
Nc1ccccc1NC(=O)c1ccc(CNC(=O)OCc2cccnc2)cc1 [Entinostat],3560 nM,effect on relative HDR in the compound screen [2]: did not show the same effect
Nc1cc(F)ccc1NC(=O)c1ccc(CNC(=O)/C=C/c2cccnc2)cc1 [Epidaza],> 10000 nM,effect on relative HDR in the compound screen [2]: did not show an effect towards improving HDR
C[C@@H](Oc1cc(-n2cnc3ccc(CN4CCN(C)CC4)cc32)sc1C(N)=O)c1ccccc1C(F)(F)F [GSK461364],8.35 nM,–
CCn1cc(-c2ccnc3[nH]c(-c4cccc(CN(C)C)c4)cc23)c(-c2ccc(NC(=O)N(C)C)cc2)n1 [GSK1070916],1390 nM,effect on relative HDR in the compound screen [2]: did not show an effect toward relative HDR activation
Cc1ncc(Cl)cc1NCc1ccc(C(=O)N[C@@H](CC2CCCC2)C(=O)NC2CC2)s1 [GSK2830371],> 10000 nM,–
CCn1cc(-c2cccc(C(F)(F)F)c2)c2sc(C(=N)NC3CCS(=O)(=O)CC3)cc2c1=O [I-BRD9],–,"IC50 [1, 6]: 8940 nM"
Cc1sc2c(c1C)C(c1ccc(Cl)cc1)=N[C@@H](CC(=O)O)c1nnc(C)n1-2 [JQ-1 COOH],–,"IC50 [1, 6]: > 10000 nM"

Molecule,"IC50 [1, 5]",other results
O=c1cc(-c2cccc3c2Sc2ccccc2S3)oc(N2CCOCC2)c1 [KU-55933],> 10000 nM,–
C[C@@H]1CN(CC(=O)Nc2ccc3c(c2)Cc2cccc(-c4cc(=O)cc(N5CCOCC5)o4)c2S3)C[C@H](C)O1 [KU-60019],> 10000 nM,–
Cc1cc(C)cc(C(=O)NOCCCCCC(=O)NO)c1 [LMK-235],–,"IC50 [1, 6]: 1790 nM"
O=C(c1cc(Cc2n[nH]c(=O)c3ccccc23)ccc1F)N1CCN(C(=O)C2CC2)CC1 [Olaparib],> 10000 nM,–
COc1ccc(Cn2ccc3ccc(C(=O)NO)cc32)cc1 [PCI-34051],–,"IC50 [1, 6]: > 10000 nM"
CC(=O)O[C@H]1C(=O)[C@@]2(C)[C@H]([C@H](OC(=O)c3ccccc3)[C@]3(O)C[C@H](OC(=O)[C@H](O)[C@@H](NC(=O)c4ccccc4)c4ccccc4)C(C)=C1C3(C)C)[C@]1(OC(C)=O)CO[C@@H]1C[C@@H]2O [Paclitaxel],3.12 nM,–
C[C@]12CCCN1CC1=NNC(=O)c3cc(F)cc4[nH]c2c1c34 [Pamiparib],> 10000 nM,–
Cc1[nH]c2ccccc2c1CCNCc1ccc(/C=C/C(=O)NO)cc1 [Panobinostat],30.6 nM,effect on relative HDR in the compound screen [2]: did not show the same effect
NS(=O)(=O)OC[C@@H]1C[C@@H](n2ccc3c(N[C@H]4CCc5ccccc54)ncnc32)C[C@@H]1O [Pevonedistat],4740 nM,–
COc1cccc(OCCCN)c1-c1cc(Nc2cnc(C#N)cn2)n[nH]1 [Prexasertib],5.33 nM,–
CN(C)C(=O)c1cc2cnc(Nc3ccc(N4CCNCC4)cn3)nc2n1C1CCCC1 [Ribociclib],> 10000 nM,–
C/C=C1\NC(=O)[C@H]2CSSCC/C=C/[C@H](CC(=O)N[C@H](C(C)C)C(=O)N2)OC(=O)[C@H](C(C)C)NC1=O [Romidepsin],–,IC50 ([1]; 72 h): 16.4 nM; effect on relative HDR in the compound screen [2]: strongly inhibited HDR
CNCc1ccc(-c2[nH]c3cc(F)cc4c3c2CCNC4=O)cc1 [Rucaparib],> 10000 nM,preferential activation of HDR over NHEJ in hit validation [2]: strong dose-dependent preferential activation of HDR over NHEJ; effect on the NHEJ and HDR outcomes [2]: inhibited NHEJ and improved HDR
C[C@@H](NC(=O)c1ncnc(N)c1Cl)c1ncc(C(=O)Nc2cc(C(F)(F)F)c(Cl)cn2)s1 [TAK-580],> 10000 nM,–
CN(C)C/C=C/C(=O)Nc1ccc(C(=O)Nc2cccc(Nc3ncc(Cl)c(-c4c[nH]c5ccccc45)n3)c2)cc1 [THZ1],–,"IC50 [1, 6]: 37.1 nM"
CN(C)C/C=C/C(=O)Nc1ccc(C(=O)N2CCC[C@@H](Nc3ncc(Cl)c(-c4c[nH]c5ccccc45)n3)C2)cc1 [THZ531],352 nM,–
CC[C@@H]1C(=O)N(C)c2cnc(Nc3ccc(C(=O)N[C@H]4CC[C@H](N5CCN(CC6CC6)CC5)CC4)cc3OC)nc2N1C(C)C [Volasertib],24.5 nM,–
Oc1nc(-c2ccc(C(F)(F)F)cc2)nc2c1CSCC2 [XAV-939],> 10000 nM,–
Karonudib,–,"IC50 [1, 6]: 450 nM"
